Assay type in all cases: binding
Assay [1] in a line: Fluorescence titration of indicator with cadmium ions in cuvettes. The conditions noted are these: for F = F(bind)/F0, Cd^2+: fluorescent response to binding, in brackets. The method, then:
(§1) A dye stock (5.0×10^−4 M) solution of Compound 109 was prepared in DMSO. Lanthanide, Lead, cadmium and mercury ion solutions from 0-40 nM were prepared in disposable cuvettes by diluting a 100 mM metal ion stock solutions to a final volume of 2 mL with 100 mM MOPS (pH7). For the lanthanide titration, dye stock was diluted to give a final concentration of 50 nM. For the cadmium titration, dye stock was added to give a final concentration of 2.5×10^−7 M. For the mercury titrations, dye stock was added to give a final concentration of 2.5×10^−7 M. Samples were excited at 492 nm and fluorescence was recorded at 517 nm.

The nature of assay [2]: Fluorescence titration of indicator with mercury ions in cuvettes. The method, then: as §1
The nature of assay [3]: Fluorescence titration of indicator with lead ions. The conditions noted are these: for Kd: Table 3 binding constant, read-out: Kd Pb^2+; for F = F(bind)/F0, Pb^2+: fluorescent response to binding, in brackets. The method, then: as §1
A short description of assay [4]: Fluorescence titration of indicator with zinc ions. As to conditions: for Kd: Table 3 binding constant, read-out: Kd Zn^2+; for F = F(bind)/F0, Zn^2+: fluorescent response to binding, in brackets.
A short description of assay [5]: Fluorescence titration of indicator with calcium ions. As to conditions: for Kd: Table 3 binding constant, read-out: Kd Ca^2+; for F = F(bind)/F0, Ca^2+: fluorescent response to binding, in brackets.
Assay [6] in a line: Fluorescence titration of indicator with lanthanide ions in cuvettes. As to conditions: for F = F(bind)/F0, La^3+: fluorescent response to binding, in brackets. The method, then: as §1
Assay [7] in a line: Fluorescence titration of indicator with manganese ions. As to conditions: for Kd: Table 3 binding constant, read-out: Kd Mn^2+; for F = F(bind)/F0, Mn^2+: fluorescent response to binding, in brackets.
The mark [8] stands for this setting: Table 3 binding constant, read-out: Kd Cd^2+.
[9] abbreviates: Table 3 binding constant, read-out: Kd La^3+.

One may read the Kd as the free concentration of one partner at which half of the binding sites on the other are occupied at equilibrium, for simple one-to-one binding. For the compound `O=C([O-])CN(CC(=O)[O-])c1ccccc1OCCOCCOc1cc(-c2c3cc(F)c(=O)cc-3oc3cc([O-])c(F)cc23)ccc1N(CC(=O)[O-])CC(=O)[O-].[K+].[K+].[K+].[K+].[K+]` [Compound 109], the equilibrium dissociation constant (Kd) is 61 nM in assay [1] (100 mM MOPS pH7, dye 2.5×10^−7 M, excited 492 nm, recorded 517 nm, read-out: Kd cadmium (Cd(II))); 61 nM in assay [1] (setting [8]); 2160 nM in assay [2] (100 mM MOPS pH7, dye 2.5×10^−7 M, excited 492 nm, recorded 517 nm, read-out: Kd mercury (Hg2+)); 2160 nM in assay [2] (Table 3 binding constant, read-out: Kd Hg^2+); 38.9 µM in assay [3]; 27.1 µM in assay [4]. For the same compound, the dissociation constant (Kd) in assay [5] turned out to be 21.4 µM; in assay [6] (100 mM MOPS pH7, dye 50 nM, excited 492 nm, recorded 517 nm, read-out: Kd lanthanide (La(III))), 10.3 nM; in assay [6] (setting [9]) it was 10 nM. The “F = F(bind)/F0, Cd^2+” value in assay [1] was found to be 11. The “F = F(bind)/F0, Hg^2+” value in assay [2] (fluorescent response to binding, in brackets) is listed as 20. For the same compound, the “F = F(bind)/F0, Pb^2+” value in assay [3] came out at 20. Also, the “F = F(bind)/F0, Zn^2+” value in assay [4] is listed as 8.8. Moreover, in assay [5], the “F = F(bind)/F0, Ca^2+” value was found to be 68. The “F = F(bind)/F0, La^3+” value in assay [6] is given as 47.

For `CN(C)c1ccc2c(-c3ccc(N(CC(=O)[O-])CC(=O)O)c(OCCOCCOc4ccccc4N(CC(=O)O)CC(=O)O)c3)c3ccc(=[N+](C)C)cc-3oc2c1` [Compound 112], the Kd in assay [1] (setting [8]) is 395 nM; in assay [3], 5.44 µM; in assay [7], 80.2 µM; in assay [4], 35.8 µM; in assay [5] it was 44.9 µM; in assay [6] (setting [9]) it was 359 nM. The “F = F(bind)/F0, Cd^2+” value in assay [1] amounted to 39. Besides, in assay [3], the “F = F(bind)/F0, Pb^2+” value is recorded as 29. For the same compound, the “F = F(bind)/F0, Mn^2+” value in assay [7] worked out at 1.82. In assay [4], the “F = F(bind)/F0, Zn^2+” value is on record as 17. The “F = F(bind)/F0, Ca^2+” value in assay [5] amounted to 161. Further, in assay [6], the “F = F(bind)/F0, La^3+” value is on record as 36.

In the case of `O=C([O-])CN(CC(=O)O)c1ccc(C2=c3cc4c5c(c3Oc3c2cc2c6c3CCCN6CCC2)CCC[N+]=5CCC4)cc1OCCOCCOc1ccccc1N(CC(=O)O)CC(=O)O` [Compound 115], the equilibrium dissociation constant (Kd) amounted to 331 nM in assay [1] (setting [8]); 0.189 µM in assay [3]; 136 µM in assay [7]; 28.6 µM in assay [4]; 67.8 µM in assay [5]; 352 nM in assay [6] (setting [9]). Further, the “F = F(bind)/F0, Pb^2+” value in assay [3] came to 33. Also, the “F = F(bind)/F0, Mn^2+” value in assay [7] was 2.5. In addition, the “F = F(bind)/F0, Zn^2+” value in assay [4] was 20. In addition, in assay [5], the “F = F(bind)/F0, Ca^2+” value was 114. Besides, the “F = F(bind)/F0, La^3+” value in assay [6] stood at 32.

Source of the values: US8604243B2, “Fluorescent ion indicators for cadmium and lanthanide ion detection” (Life Technologies Corporation, priority 2005, dated 2013).
